Data taken from PubChem BioAssay AID1963854 (Molecular Pharmacology Branch, DTP, NCI, 2024).
pIC50: −log10 of the molar value.

Tested on: 186277-243-T-J2-PDC complex spheroid viability
Assay: Anticancer human tumor 186277-243-T-J2-PDC patient-derived colon adenocarcinoma cell line growth inhibition [POLQ]
Details: for pIC50: curve of first compound; for viability, T/C: stronger effect = lower value
Method in brief: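 PDC + HUVEC + MSC complex spheroids; POLQ inhibitors ± partner drugs; top conc. at/near clinical Cmax, else 10 microM (SN-38 1 microM), half-log dilutions; 37 degrees C, 5% CO2.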

[1] = second compound 0.0316 µM, first compound 0.0316 µM
[2] = second compound 0.0316 µM, first compound 0.1 µM
[3] = second compound 0.1 µM, first compound 0.0316 µM
[4] = second compound 0.1 µM, first compound 0.1 µM
[5] = second compound 0.316 µM, first compound 0.0316 µM
[6] = second compound 0.316 µM, first compound 0.1 µM
[7] = second compound 1 µM, first compound 0.0316 µM
[8] = second compound 1 µM, first compound 0.1 µM
[9] = second compound 3.16 µM, first compound 0.0316 µM
[10] = second compound 3.16 µM, first compound 0.1 µM
[11] = second compound 10 µM, first compound 0.0316 µM
[12] = second compound 10 µM, first compound 0.1 µM
[13] = second compound 0.0316 µM, first compound 0.316 µM
[14] = second compound 0.0316 µM, first compound 1 µM
[15] = second compound 0.0316 µM, first compound 3.16 µM
[16] = second compound 0.0316 µM, first compound 10 µM
[17] = second compound 0.1 µM, first compound 0.316 µM
[18] = second compound 0.1 µM, first compound 1 µM
[19] = second compound 0.1 µM, first compound 3.16 µM
[20] = second compound 0.1 µM, first compound 10 µM
[21] = second compound 0.316 µM, first compound 0.316 µM
[22] = second compound 0.316 µM, first compound 1 µM
[23] = second compound 0.316 µM, first compound 3.16 µM
[24] = second compound 0.316 µM, first compound 10 µM
[25] = second compound 1 µM, first compound 0.316 µM
[26] = second compound 1 µM, first compound 1 µM
[27] = second compound 1 µM, first compound 3.16 µM
[28] = second compound 1 µM, first compound 10 µM
[29] = second compound 3.16 µM, first compound 0.316 µM
[30] = second compound 3.16 µM, first compound 1 µM
[31] = second compound 3.16 µM, first compound 3.16 µM
[32] = second compound 3.16 µM, first compound 10 µM
[33] = second compound 10 µM, first compound 0.316 µM
[34] = second compound 10 µM, first compound 1 µM
[35] = second compound 10 µM, first compound 3.16 µM
[36] = second compound 10 µM, first compound 10 µM
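Note: spheroids exposed to compounds for seven days.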
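Throughout, for viability, T/C: 100% = DMSO vehicle control viability.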

For CC[C@@]1(O)C(=O)OCc2c1cc1n(c2=O)Cc2cc3c(CN(C)C)c(O)ccc3nc2-1 + Nc1ccc(C#CCN(C(=O)Cc2ncc(C(F)(F)F)cc2C(F)(F)F)c2ccc(F)cc2)nn1, the pIC50 (second compound 0.0316 µM) was < 7.00, the pIC50 (second compound 0.1 µM) was < 7.00 and the pIC50 (second compound 0.316 µM) was < 7.00. For the same compound, the pIC50 (second compound 1 µM) was < 7.00, the pIC50 (second compound 3.16 µM) was < 7.00 and the pIC50 (second compound 10 µM) was < 7.00. The viability, T/C (second compound 0.0316 µM, first compound 0.000316 µM) was 114%, the viability, T/C (second compound 0.0316 µM, first compound 0.001 µM) was 98% and the viability, T/C (second compound 0.0316 µM, first compound 0.00316 µM) was 123%. The viability, T/C (second compound 0.0316 µM, first compound 0.01 µM) was 114%, the viability, T/C [1] was 136% and the viability, T/C [2] was 91.7%. The viability, T/C (second compound 0.1 µM, first compound 0.000316 µM) was 109%, the viability, T/C (second compound 0.1 µM, first compound 0.001 µM) was 93.8% and the viability, T/C (second compound 0.1 µM, first compound 0.00316 µM) was 90.6%. It also gave a viability, T/C (second compound 0.1 µM, first compound 0.01 µM) of 129%, a viability, T/C [3] of 128% and a viability, T/C [4] of 88.1%. It also gave a viability, T/C (second compound 0.316 µM, first compound 0.000316 µM) of 92.9%, a viability, T/C (second compound 0.316 µM, first compound 0.001 µM) of 87.2% and a viability, T/C (second compound 0.316 µM, first compound 0.00316 µM) of 108%. The viability, T/C (second compound 0.316 µM, first compound 0.01 µM) was 133%, the viability, T/C [5] was 124% and the viability, T/C [6] was 83.8%. For the same compound, the viability, T/C (second compound 1 µM, first compound 0.000316 µM) was 97.3%, the viability, T/C (second compound 1 µM, first compound 0.001 µM) was 105% and the viability, T/C (second compound 1 µM, first compound 0.00316 µM) was 117%. It also gave a viability, T/C (second compound 1 µM, first compound 0.01 µM) of 115%, a viability, T/C [7] of 130% and a viability, T/C [8] of 81.1%. For the same compound, the viability, T/C (second compound 3.16 µM, first compound 0.000316 µM) was 89.2%, the viability, T/C (second compound 3.16 µM, first compound 0.001 µM) was 91.5% and the viability, T/C (second compound 3.16 µM, first compound 0.00316 µM) was 104%. It also gave a viability, T/C (second compound 3.16 µM, first compound 0.01 µM) of 122%, a viability, T/C [9] of 124% and a viability, T/C [10] of 79.9%. For the same compound, the viability, T/C (second compound 10 µM, first compound 0.000316 µM) was 111%, the viability, T/C (second compound 10 µM, first compound 0.001 µM) was 89.7% and the viability, T/C (second compound 10 µM, first compound 0.00316 µM) was 116%. It also gave a viability, T/C (second compound 10 µM, first compound 0.01 µM) of 121%, a viability, T/C [11] of 107% and a viability, T/C [12] of 70.6%.
For O=C(Nc1ccc(O)c(NS(=O)(=O)c2ccc(F)cc2)c1)c1ccc(-c2ccccc2)cc1 + Cc1cccc(N(C)C(=O)C2C(O)CCN2c2nc(C)cc(C(F)(F)F)c2C#N)c1, the pIC50 (second compound 0.0316 µM) was < 5.00, the pIC50 (second compound 0.1 µM) was < 5.00 and the pIC50 (second compound 0.316 µM) was < 5.00. For the same compound, the pIC50 (second compound 1 µM) was < 5.00, the pIC50 (second compound 3.16 µM) was < 5.00 and the pIC50 (second compound 10 µM) was < 5.00. It also gave a viability, T/C [1] of 93.9%, a viability, T/C [2] of 98.5% and a viability, T/C [13] of 108%. The viability, T/C [14] was 86.1%, the viability, T/C [15] was 116% and the viability, T/C [16] was 107%. The viability, T/C [3] was 108%, the viability, T/C [4] was 102% and the viability, T/C [17] was 104%. For the same compound, the viability, T/C [18] was 88.9%, the viability, T/C [19] was 108% and the viability, T/C [20] was 105%. For the same compound, the viability, T/C [5] was 86.6%, the viability, T/C [6] was 106% and the viability, T/C [21] was 110%. It also gave a viability, T/C [22] of 103%, a viability, T/C [23] of 102% and a viability, T/C [24] of 108%. For the same compound, the viability, T/C [7] was 95%, the viability, T/C [8] was 111% and the viability, T/C [25] was 103%. It also gave a viability, T/C [26] of 104%, a viability, T/C [27] of 107% and a viability, T/C [28] of 109%. For the same compound, the viability, T/C [9] was 102%, the viability, T/C [10] was 94.8% and the viability, T/C [29] was 102%. For the same compound, the viability, T/C [30] was 90.8%, the viability, T/C [31] was 103% and the viability, T/C [32] was 112%. It also gave a viability, T/C [11] of 100%, a viability, T/C [12] of 106% and a viability, T/C [33] of 86.7%. For the same compound, the viability, T/C [34] was 95.2%, the viability, T/C [35] was 107% and the viability, T/C [36] was 115%.
For COc1ccc([C@@H](O)c2cc(-c3ncnc4cc(N5CCOCC5)ccc34)c(F)cc2Cl)nn1 + Nc1ccc(C#CCN(C(=O)Cc2ncc(C(F)(F)F)cc2C(F)(F)F)c2ccc(F)cc2)nn1, the pIC50 (second compound 0.0316 µM) was < 5.00, the pIC50 (second compound 0.1 µM) was < 5.00 and the pIC50 (second compound 0.316 µM) was < 5.00. For the same compound, the pIC50 (second compound 1 µM) was < 5.00, the pIC50 (second compound 3.16 µM) was < 5.00 and the pIC50 (second compound 10 µM) was < 5.00. It also gave a viability, T/C [1] of 104%, a viability, T/C [2] of 109% and a viability, T/C [13] of 110%. The viability, T/C [14] was 103%, the viability, T/C [15] was 90.2% and the viability, T/C [16] was 58.5%. The viability, T/C [3] was 97.6%, the viability, T/C [4] was 106% and the viability, T/C [17] was 99.5%. It also gave a viability, T/C [18] of 96.3%, a viability, T/C [19] of 101% and a viability, T/C [20] of 67.7%. It also gave a viability, T/C [5] of 99.3%, a viability, T/C [6] of 95.6% and a viability, T/C [21] of 107%. For the same compound, the viability, T/C [22] was 108%, the viability, T/C [23] was 101% and the viability, T/C [24] was 60%. For the same compound, the viability, T/C [7] was 114%, the viability, T/C [8] was 101% and the viability, T/C [25] was 104%. It also gave a viability, T/C [26] of 95.4%, a viability, T/C [27] of 98.3% and a viability, T/C [28] of 63.8%. The viability, T/C [9] was 111%, the viability, T/C [10] was 105% and the viability, T/C [29] was 97.6%. It also gave a viability, T/C [30] of 116%, a viability, T/C [31] of 99.7% and a viability, T/C [32] of 63.2%. The viability, T/C [11] was 104%, the viability, T/C [12] was 90.6% and the viability, T/C [33] was 102%. It also gave a viability, T/C [34] of 114%, a viability, T/C [35] of 111% and a viability, T/C [36] of 57%.
